Assay results reported in patent publication US8278072B1, “Method for synthesis of sialylated products using reversible sialylation” (Health Research, Inc., priority 2007, dated 2012).

Target: T1, ST3Gal-II (Rattus norvegicus, UniProt Q11205)
T1 construct: purchased Calbiochem
T1 sequence (Q11205 1-350): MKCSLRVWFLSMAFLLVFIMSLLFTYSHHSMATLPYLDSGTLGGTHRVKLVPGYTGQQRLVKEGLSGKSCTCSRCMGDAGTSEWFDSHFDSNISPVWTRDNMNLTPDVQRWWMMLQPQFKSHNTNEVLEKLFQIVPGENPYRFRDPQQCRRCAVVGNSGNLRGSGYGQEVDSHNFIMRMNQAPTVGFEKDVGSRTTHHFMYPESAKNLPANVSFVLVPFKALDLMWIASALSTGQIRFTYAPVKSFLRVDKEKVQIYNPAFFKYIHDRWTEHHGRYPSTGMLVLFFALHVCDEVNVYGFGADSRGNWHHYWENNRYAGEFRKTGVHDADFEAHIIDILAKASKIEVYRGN
Test: Reverse sialylation by ST3Gal-II in presence of citrate or 5′-nucleotides
Type: biochemical
Details: 0.2 mM [3], 7 mM 5′-CMP, no [5], Dowex-1 Formate
Description: FIG. 5. Effect of 5′-nucleotides on direct sialyltransferase activity (panel a) and reverse sialylation (panel b). a. Varying concentrations of 5′-CDP or 5′-CMP were added to 100 mM acceptor (specified below), 0.15 mM CMP-[9-^3H]NeuAc and either ST3Gal-II (0.2 mU), ST3Gal-III (0.5 mU) or ST6Gal-I (0.2 mU) for 4 h at 37° C. Products were separated using Sep-Pak C18 method. ST3Gal-III activity was measured using acceptor 4-O-MeGalβ1,4GlcNAcβ-O-Bn in the presence of 5′-CDP (●) and 5′-CMP (◯). ST6Gal-I activity was measured using Gal β1,4GlcNAcβ-O-Bn in the presence of 5′-CDP (▴) and 5′-CMP (Δ). ST3Gal-II using D-Fucβ1,3GalNAcα-O-Bn in the presence of 5′-CDP (▪) and 5′-CMP (□). b) Reverse sialylation by ST3Gal-II was measured in reaction mixtures containing 0.2 mM [9-^3H] [3], 7 mM 5′-CMP, ST3Gal-II (2 mU), D-Fucβ1,3GalNAcα-OBn (3.0 mM) and varying doses of either 5′-CDP (▴), 5′-UMP (◯) or 2-deoxy 5′-CMP (●) for 4 hours at 37° C. Reaction product ([9-^3H]NeuAcα2,3DFucβ1,3 GalNAcα-O-Bn) was isolated using Sep-Pak C18 method. In some runs, where was absent, the amount of CMP-NeuAc produced was quantified using the Dowex-1 Formate method in the presence of varying doses of 5′-CDP (▪).
Besides pH other distinctions were also observed between forward and reverse sialylation. In this regard, citrate ions tended to inhibit forward sialylation but not reverse sialylation activity (Table V). For these studies, the effect of citrate on the forward sialylation activity of ST3Gal-I, ST3Gal-II, ST3Gal-III and ST6Gal-I was examined. Reverse sialylation activity of ST3Gal-II was also measured in terms of: i) the formation of CMP-NeuAc from 5′-CMP; and ii) the transfer of NeuAc from this newly synthesized CMP-NeuAc to another O-glycan. From the data (Table V), it is evident that citrate inhibits the direct sialylation activity of all the enzymes mentioned above. However, both the synthesis of CMP-[9-^3H]NeuAc from 5′-CMP as well as the synthesis of [9-^3H]NeuAcα2,3D-Fucβ1,3 GalNAcα-O-Bn using the newly formed CMP-[9-^3H]NeuAc through reverse sialylation of ST3Gal-II was not inhibited by citrate.
The effect of 5′-nucleotides on forward sialylation (FIG. 5a) and reverse sialylation (FIG. 5b) were examined. […] The overall formation of [9-^3H]NeuAcα2,3D-Fucβ1,3 GalNAcα-O-Bn by the two-step reverse sialylation process, however, was inhibited by 5′-CDP and this is consistent with the finding that 5′-CDP inhibits forward sialylation in the second step.

`Nc1ccn([C@@H]2O[C@H](COP(=O)(O)OP(=O)(O)O)[C@@H](O)[C@H]2O)c(=O)n1` [5′-CDP] was tested, and the “Effect on first step of reverse sialylation (formation of CMP-[9-3H]NeuAc from 5′-CMP)” value was “did not inhibit”.
